# Data reported in publication PMC4667193 (Scientific Reports, 2015).
# What was measured:
# Assay in all cases: [^3H]NMS radioligand competition binding, CHO cell membranes
# Rat M1 mAChR = target: T1, Rat M1 mAChR (Rattus norvegicus, UniProt P08482); conditions: rat M1, 0.1 nM [^3H]NMS
# T1 construct: host or cells: CHO (CHO-K1) cells
# T1 sequence (P08482 1-460): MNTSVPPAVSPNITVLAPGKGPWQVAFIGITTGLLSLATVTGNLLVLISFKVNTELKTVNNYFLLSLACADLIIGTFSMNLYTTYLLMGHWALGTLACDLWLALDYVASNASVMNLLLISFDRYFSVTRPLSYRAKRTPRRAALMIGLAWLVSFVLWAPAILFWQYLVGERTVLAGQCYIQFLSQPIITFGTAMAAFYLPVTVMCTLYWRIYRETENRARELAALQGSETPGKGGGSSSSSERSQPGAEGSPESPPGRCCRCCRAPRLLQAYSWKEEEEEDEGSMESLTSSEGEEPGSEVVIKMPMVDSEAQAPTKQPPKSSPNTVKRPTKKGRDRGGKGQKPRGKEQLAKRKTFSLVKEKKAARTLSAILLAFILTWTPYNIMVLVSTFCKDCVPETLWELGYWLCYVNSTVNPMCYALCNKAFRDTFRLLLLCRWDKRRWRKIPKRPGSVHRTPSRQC
# Experimental: (§1) Membranes were prepared from CHO cells stably expressing individual rat mAChRs (rM1 to rM5). Briefly, media was removed, cells were washed with PBS and harvested with PBS into a centrifuge bottle. Cells were spun at 2,000 g for 5 minutes at 4 °C. After harvesting, the supernatant was gently discarded and cold membrane preparation buffer [Hanks’ balanced salt solution (HBSS; Invitrogen), 4.17 mM sodium bicarbonate, 20 mM HEPES and 0.5 mM EDTA] was added (10 mL/dish). Cells were then homogenized for 5–10 seconds with a rotary homogenizer (Polytron®) and centrifuged at 20,000g for 20 minutes at 4 °C. The homogenization/centrifugation cycle was repeated twice. After the last centrifugation, the supernatant was gently discarded and the pellet was resuspended in cold membrane preparation buffer (up to 2 mL). All binding reactions were performed in a total volume of 1 mL containing 25 μg of membrane protein. […] The equilibrium binding was terminated by rapid filtration using a 96-well harvester (Brandel®). Filters were washed three times with ice-cold harvesting buffer and were dried overnight. Radioactivity was counted using a TopCount NXT (PerkinElmer®) and counts were normalized to the maximal specific binding in the presence of vehicle. Saturation and competition binding data were analyzed using a weighted nonlinear least-squares interactive curve-fitting program GraphPad Prism (GraphPad Prism Software version 5.0). A mathematical model for one or two binding sites was applied. The equilibrium dissociation constant (KD) and the binding capacity (Bmax) were determined. The inhibition constant (Ki) was determined from competition curves using the Cheng and Prusoff equation[52].
# Rat M3 mAChR = target: T2, Rat M3 mAChR (Rattus norvegicus, UniProt P08483); conditions: rat M3, 0.1 nM [^3H]NMS
# T2 construct: host or cells: CHO (CHO-K1) cells
# T2 sequence (P08483 whole entry): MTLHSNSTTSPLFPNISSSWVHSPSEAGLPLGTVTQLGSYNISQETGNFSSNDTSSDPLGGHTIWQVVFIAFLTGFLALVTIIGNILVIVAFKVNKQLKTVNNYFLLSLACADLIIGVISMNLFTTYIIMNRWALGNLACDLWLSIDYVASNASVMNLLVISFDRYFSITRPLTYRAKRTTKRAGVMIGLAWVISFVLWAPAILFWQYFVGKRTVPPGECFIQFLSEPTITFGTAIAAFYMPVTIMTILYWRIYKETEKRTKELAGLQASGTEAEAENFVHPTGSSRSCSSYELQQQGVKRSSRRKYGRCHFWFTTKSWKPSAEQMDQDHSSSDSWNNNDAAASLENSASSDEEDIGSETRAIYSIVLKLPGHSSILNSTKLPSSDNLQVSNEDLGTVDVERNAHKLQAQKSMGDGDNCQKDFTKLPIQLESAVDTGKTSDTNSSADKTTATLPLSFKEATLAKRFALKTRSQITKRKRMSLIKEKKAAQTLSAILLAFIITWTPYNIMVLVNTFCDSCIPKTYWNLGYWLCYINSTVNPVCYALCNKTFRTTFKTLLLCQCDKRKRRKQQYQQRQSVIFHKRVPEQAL
# Experimental: as §1
# Rat M4 mAChR = target: T3, Rat M4 mAChR (Rattus norvegicus, UniProt P08485); conditions: rat M4, 0.1 nM [^3H]NMS
# T3 construct: host or cells: CHO (CHO-K1) cells
# T3 sequence (P08485 1-478): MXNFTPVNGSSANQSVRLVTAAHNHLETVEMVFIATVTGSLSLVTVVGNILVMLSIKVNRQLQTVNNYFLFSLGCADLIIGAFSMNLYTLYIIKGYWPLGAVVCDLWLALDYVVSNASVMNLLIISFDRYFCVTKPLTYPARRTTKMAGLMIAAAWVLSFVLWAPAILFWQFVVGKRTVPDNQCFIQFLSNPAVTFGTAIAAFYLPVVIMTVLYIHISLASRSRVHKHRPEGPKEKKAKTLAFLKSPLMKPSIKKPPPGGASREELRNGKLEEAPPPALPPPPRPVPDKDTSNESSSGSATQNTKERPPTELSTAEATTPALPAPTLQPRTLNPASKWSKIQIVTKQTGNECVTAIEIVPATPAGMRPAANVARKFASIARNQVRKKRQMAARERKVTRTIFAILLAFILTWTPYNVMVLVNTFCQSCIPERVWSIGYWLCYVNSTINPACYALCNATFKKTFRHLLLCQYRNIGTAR
# Experimental: as §1
# Rat M5 mAChR = target: T4, Rat M5 mAChR (Rattus norvegicus, UniProt P08911); conditions: rat M5, 0.1 nM [^3H]NMS
# T4 construct: host or cells: CHO (CHO-K1) cells
# T4 sequence (P08911 1-531): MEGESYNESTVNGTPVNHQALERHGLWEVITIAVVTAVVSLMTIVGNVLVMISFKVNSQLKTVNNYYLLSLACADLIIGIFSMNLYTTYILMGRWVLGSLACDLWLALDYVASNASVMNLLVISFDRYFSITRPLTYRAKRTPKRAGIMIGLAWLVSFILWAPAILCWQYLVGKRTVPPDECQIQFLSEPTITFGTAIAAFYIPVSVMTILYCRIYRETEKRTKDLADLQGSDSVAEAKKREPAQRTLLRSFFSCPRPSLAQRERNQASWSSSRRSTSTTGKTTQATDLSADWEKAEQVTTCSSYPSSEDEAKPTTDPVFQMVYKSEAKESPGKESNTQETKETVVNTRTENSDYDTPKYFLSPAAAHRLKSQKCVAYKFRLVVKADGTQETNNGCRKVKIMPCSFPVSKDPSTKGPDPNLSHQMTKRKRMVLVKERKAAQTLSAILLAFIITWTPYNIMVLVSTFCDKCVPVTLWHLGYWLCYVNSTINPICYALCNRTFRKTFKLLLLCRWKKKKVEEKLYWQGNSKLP
# Experimental: as §1
# Rat M2 mAChR = target: T5, Rat M2 mAChR (Rattus norvegicus, UniProt P10980); conditions: rat M2, 0.1 nM [^3H]NMS
# T5 construct: host or cells: CHO (CHO-K1) cells
# T5 sequence (P10980 1-466): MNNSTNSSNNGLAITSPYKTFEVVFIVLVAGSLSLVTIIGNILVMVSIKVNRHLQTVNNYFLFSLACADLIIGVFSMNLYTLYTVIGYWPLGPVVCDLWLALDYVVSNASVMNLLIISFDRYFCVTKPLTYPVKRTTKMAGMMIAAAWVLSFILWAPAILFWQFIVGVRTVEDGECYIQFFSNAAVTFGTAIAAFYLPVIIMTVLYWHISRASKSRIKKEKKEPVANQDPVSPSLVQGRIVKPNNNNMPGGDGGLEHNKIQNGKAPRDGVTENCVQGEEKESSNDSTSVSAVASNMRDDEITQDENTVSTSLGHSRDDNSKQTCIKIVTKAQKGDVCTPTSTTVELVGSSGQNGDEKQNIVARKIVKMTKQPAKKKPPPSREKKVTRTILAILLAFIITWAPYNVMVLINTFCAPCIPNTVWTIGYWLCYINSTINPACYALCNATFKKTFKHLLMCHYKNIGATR
# Experimental: as §1
smiles,measurement,setting,value
"COC(=O)C1=CC[C@@H]2CC[C@H]1N2C [AEME, anhydroecgonine methyl ester]",Ki,Rat M1 mAChR,25.7 µM
same,Ki,Rat M3 mAChR,33.9 µM
same,Ki,Rat M4 mAChR,24.5 µM
same,Ki,Rat M5 mAChR,29.5 µM
same,Ki,Rat M2 mAChR,19.5 µM
